Experimental data reported in US9447157B2, “Nitration shielding peptides and methods of use thereof” (Augusta University Research Institute, Inc., priority 2013, dated 2016).

Assays:
LPS treated mice = experiment: Mouse model of ALI induced by intra-tracheal LPS: BALF, weight, histopathology, MPO, lung mechanics, cytokines; type: in vivo
Experimental: The Committee on Animal Research at Georgia Regents University approved all animal protocols and procedures. Stock solutions of Escherichia coli LPS (0111:B4) were prepared in saline. […] Mice were examined 24 h after LPS treatment. At the end of the treatment lungs were flushed with 3 ml of ice-cold PBS (5 mM EDTA), excised, dipped in saline and blotted dry. A portion of the lung was quickly snap-frozen in liquid nitrogen, crushed to powder in a pre-chilled mortar and stored at −80° C. The remaining lung tissue was stored at −80° C.
Isolation of Bronchoalveolar Lavage Fluid (BALF) BALF was obtained by instilling and withdrawing 1 mL of PBS via a tracheal cannula. Part of the solution was used to determine protein levels in the BALF. In addition, cells were pelleted at 2,500 g for 10 min and resuspended in water for 15 sec to lyse red blood cells. Leukocytes were resuspended in 1 ml PBS, and total cell count determined using a haemocytometer.
Mice were anesthetized with pentobarbital (90 mg/kg, i.p.), tracheostomized with a metal 1.2 mm (internal diameter) cannula and connected to a Flexi Vent (Scireq Inc) ventilator. Ventilation was initiated at a tidal volume of 10 ml/kg and a rate of 150/min. A TLC maneuver was performed, followed by 15 sec later, by a sinusoidal 1 Hz oscillation. Subsequently, an 8 sec forced oscillatory signal (0.5-19.6 Hz) was applied, the mechanical input impedance of the respiratory system was calculated, and a model containing a constant phase tissue compartment was fit to input impedance in order to evaluate tissue elastance. Dynamic pressure-volume maneuvers were performed by step-wise increasing the airway pressure to 30 cm H2O and then reversing the process.
Lungs were inflated with 10% formalin under 15 cm H2O pressure and immersed in the same solution before tissue processing into paraffin embedded blocks and 4 μm sections were then cut stained with H&E. Histopathological assessment was conducted by two researchers who were masked to treatment group. H&E stained sections were scored for the presence of neutrophil in the alveolar space, neutrophils in the interstitial space, the existence of hyaline membranes, proteinaceous debris filling the airspaces and alveolar septal thickening as described previously (Matute-Bello, et al., Am. J. Respir. Cell Mol. Biol. 44, 725-738 (2011)).
Sections (5 μm) were cut from paraffin blocks and mounted on treated slides (Superfrost+). Slides were air dried overnight, placed in a 60° C. oven for 30 min, deparaffinized in xylene and run through graded alcohol to distilled water. Endogenous peroxidase was quenched with 0.3% H2O2 for 5 min, followed by two rinses with distilled water. Slides were pretreated with Target pH 6, (Dako), rinsed in distilled water, incubated in Power Block (Biogenex), rinsed in distilled water, placed in PBS for 5 min, incubated with primary antimyeloperoxidase (Cappel, 1:2000 dilution) for 30 min at 25° C. After two rinses in PBS, slides were incubated with a peroxidase-labeled polymer conjugated to goat anti-rabbit secondary IgG (Envision+, Dako) for 30 min and rinsed in PBS. Bound antibody was detected with the DAB+ substrate kit, (Dako). Hematoxylin was used as a counter-stain. MPO-stained slides were then evaluated by scoring (0-4) for the presence of neutrophils within the alveolar walls.
Analytes (pg/mL) were assessed with the MCYTOMAG70K assay (EMD Millipore) as previously described (Lucas, R., et al., Proc. Natl. Acad. Sci. USA 109, 2084-2089 (2012)).
Mice were used to perform additional physiological, biochemical and morphological studies to evaluate the efficacy of the NipR1 peptide in attenuating symptoms of ALI. […] After 24 h, mice were anesthetized and BALF was collected. Measurements of lung mechanics were also carried out.

[1] = test system: human lung microvascular endothelial cells (HLMVEC); experiment: Endothelial monolayer resistance (ECIS, TER) in LPS-challenged HLMVEC; type: cell-based; conditions: HLMVEC, peptide 100 ng/ml 30 min, then LPS 1 EU/ml
Experimental: The electrical resistance of the endothelial cell monolayer was measured with the electrical cell impedance sensor (ECIS) technique. In this system, the cells are cultured on gold plated electrodes. The change in resistance across the monolayer is measured through an amplifier attached to the arrays. Each study was performed when the resistance reached a plateau. The data was normalized to the initial voltage and plotted as a normalized resistance.
To examine if protein nitration by peroxynitrite is a contributing factor in endothelial barrier disruption in response to LPS, transendothelial resistance (TER) was measured in HLMVEC in the presence or absence of the peroxynitrite scavenger, MnTmPyp. HLMVEC were challenged with LPS (1 EU/ml) in the presence or absence of the peroxynitrite scavenger, MnTMPyP (25 μM).
To evaluate the role played by NOS in the barrier dysfunction, HLMVEC were exposed to LPS in the presence or absence of ETU (a non-specific NOS inhibitor) or 1400W (to inhibit iNOS). HLMVEC were challenged with LPS (1 EU/ml) in the presence or absence of the general NOS inhibitor, ETU (200 μM) or the iNOS specific inhibitor, 1400W (100 μM). The LPS-mediated decrease in TER was attenuated in the presence of ETU, but not 1400W (FIG. 1B). The important role of eNOS was then confirmed using a siRNA approach. HLMVEC were transiently transfected with a siRNA against eNOS or a scrambled control siRNA. After 48 h, there was a significant knockdown of eNOS protein levels (50%), as determined by Western blotting. Reducing eNOS protein levels preserved HLMVEC barrier function when challenged with LPS (FIG. 1C).

HLMVEC [2] = experiment: Total protein nitration (3-NT/β-actin) in LPS-treated HLMVEC; type: cell-based, human; conditions: peptide 100 ng/ml 30 min, then LPS 1 EU/ml
From the text: Cell extracts were separated on 4-20% gels and electrophoretically transferred to PVDF membrane (Bio-Rad), then blocked with 5% nonfat dry milk in Tris-buffered saline. The membranes were probed with antibodies to RhoA (Cell Signaling), eNOS (BD), iNOS (Cell Signaling), or 3-Nitrotyrosine (Calbiochem). Reactive bands were visualized using chemi-luminescence (Pierce) on a Kodak 440CF image station. Band intensity was quantified using Kodak 1D image processing software. Protein loading was normalized by re-probing with mouse anti-β-actin.

HLMVEC [3] = experiment: Gaps formation between cells (ZO-1 immunofluorescence) in HLMVEC; type: cell-based, human; conditions: peptide 100 ng/ml, LPS 1 EU/ml
Experimental: HLMVEC were grown on gelatin-coated coverslips and exposed to LPS in the presence or absence of the NipR1 peptides. The cells were permeabilized and blocked for 1 h at 25° C. in 5% BSA blocking buffer. A primary antibody against ZO-1 (Invitrogen, 1:100 dilution) was added. Plates were incubated overnight at 4° C. then a secondary antibody (AlexaFluor) was added for 2 h. Slides were examined with Zeiss immunofluorescence microscope Axio Observer D1. The gaps between the cells were calculated using Zeiss Axio Observer software.

RhoA [4] = target: T1, RhoA (Mus musculus, UniProt Q9QUI0); experiment: RhoA activity, nitration and protein in lungs of LPS treated mice; type: in vivo
T1 construct: from tissue; host or cells: mouse lung (male C57Bl/6)
Experimental: The Committee on Animal Research at Georgia Regents University approved all animal protocols and procedures. Stock solutions of Escherichia coli LPS (0111:B4) were prepared in saline. […] Mice were examined 24 h after LPS treatment. At the end of the treatment lungs were flushed with 3 ml of ice-cold PBS (5 mM EDTA), excised, dipped in saline and blotted dry. A portion of the lung was quickly snap-frozen in liquid nitrogen, crushed to powder in a pre-chilled mortar and stored at -80° C. The remaining lung tissue was stored at -80° C. […] After 24 h, mice were sacrificed and lung tissue was obtained to determine RhoA activity and RhoA nitration, LPS induced RhoA activation in the mouse lung as in HLMVEC (FIG. 7A). […] Total RhoA protein levels and basal RhoA nitration were measured. […] Likewise, basal RhoA nitration levels (FIG. 7D) were unchanged.

RhoA [5] = target: T2, RhoA (Homo sapiens, UniProt P61586, Y34F); experiment: Stopped-flow kinetic analysis of mant-GDP/mant-GTP binding to RhoA; conditions: stop-flow analysis, purified Y34F RhoA
T2 construct: polyHis (6His); made in house; host or cells: Escherichia coli BL21
Experimental: RhoA was treated with authentic peroxynitrite (500 μM, 30 min) to induce tyrosine nitration in buffered solution. For kinetic analyses, 2 μM of either mart-GTP or -GDP was mixed with RhoA (0.1 μM) in a stopped-flow instrument (SX-20, […]). Increases in fluorescent intensity mant-nucleotide binding to RhoA were then measured using excitation 350 nm and cutoff filter 395 nm for 0.2-1 second. Acquired kinetic curves for 3-5 experiments were averaged and fitted using the Pro-kineticist software to determine observed binding constants.
To test the validity of the MD data kinetic studies were performed. His-tagged human RhoA construct was expressed in the Escherichia con BL21 strain. First, the bacterial lysate was purified by 6His-tag affinity on a Ni-NTA column. Second, the proteins in the elution fraction from the affinity purification were separated by size-exclusion chromatography (FIG. 11). The fraction containing RhoA was identified both by Coomassie blue staining and Western blot analysis. The recombinant purified RhoA was subjected to rapid flow kinetics to evaluate GDP and GTP binding using fluorescently labeled guanine nucleotides. Peroxynitrite decreases GDP binding to purified RhoA. Human recombinant RhoA was exposed to authentic peroxynitrite (100 μM, 30 min) on ice. […]

[6] = peptide i.p. 0.1 mg/kg 6 h prior to i.t. LPS 2 mg/kg, 24 h

T1 sequence (Q9QUI0 whole entry): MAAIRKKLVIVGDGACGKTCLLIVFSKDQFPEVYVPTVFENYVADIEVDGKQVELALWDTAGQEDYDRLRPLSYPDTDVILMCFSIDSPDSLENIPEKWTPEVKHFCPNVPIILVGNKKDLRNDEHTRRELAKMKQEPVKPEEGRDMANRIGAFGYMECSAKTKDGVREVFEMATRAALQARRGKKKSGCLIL
T2 sequence (P61586 whole entry Y34F): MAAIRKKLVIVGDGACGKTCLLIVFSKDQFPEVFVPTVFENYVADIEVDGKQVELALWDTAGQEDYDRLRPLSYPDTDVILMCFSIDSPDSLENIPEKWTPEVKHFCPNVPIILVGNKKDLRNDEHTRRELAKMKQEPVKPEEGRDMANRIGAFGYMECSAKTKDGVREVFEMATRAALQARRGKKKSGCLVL

With “HRKKRRQRRRQFPVYVPTVF (SEQ ID NO:25) (Human immunodeficiency virus) [NipR1]” the “LPS-mediated induction of multiple pro-inflammatory cytokines and chemokines in BALF” value (LPS treated mice; LPS + NipR1 vs LPS, MCYTOMAG-70K assay) was “attenuated”, the “Attenuation of LPS induced increase in MPO staining in the alveolar space” value (LPS treated mice; [6]) was “attenuated” and the “Attenuation of LPS-induced increase in total white blood cell counts in BALF” value (LPS treated mice; [6]) was “attenuated”. For the same substance, the “MPO activity in lung homogenates after LPS” value (LPS treated mice; [6]) was “attenuated”, the “Prevention of LPS-induced reduction in lung elastance (dynamic pressure-volume relationships)” value (LPS treated mice; [6]) was “prevented” and the “Prevention of weight loss associated with LPS exposure” value (LPS treated mice; [6]) was “able to prevent”. The “Reduction of LPS-induced histopathological changes in the lungs (H&E)” value (LPS treated mice; [6]) was “reduced”, the “Inflammatory response induced by LPS” value (LPS treated mice; peptide i.p. prior to i.t. LPS) was “reduced” and the “Attenuation of LPS-mediated disruption of the HLMVEC barrier (preservation of TER)” value [1] was “attenuated”. For the same substance, the “Increase in total protein nitration induced by LPS” value (HLMVEC [2]) was “unaffected”, the “Cell-cell gaps after LPS” value (HLMVEC [3]) was “reduction” and the “Basal RhoA nitration levels in mouse lung” value (RhoA [4]; peptide alone, no LPS) was “unchanged”. For the same substance, the “Attenuation of LPS-mediated increase in RhoA activity in the mouse lung” value (RhoA [4]; [6]) was “attenuated”, the “Attenuation of LPS-mediated increase in RhoA nitration in the mouse lung” value (RhoA [4]; [6]) was “attenuated” and the “Total RhoA protein levels in mouse lung” value (RhoA [4]; peptide i.p. 0.1 mg/kg, with or without LPS) was “Neither peptide nor LPS treatment altered”.

In the case of “Y34FRhoA: purified RhoA mutant protein in which the tyrosine residue (Y) was replaced by phenylalanine”, the “Binding of GTP (mant-GTP) to RhoA mutant” value (RhoA [5]) is reported as “No binding”.
